# In ChEMBL document CHEMBL1201862, “PubChem BioAssay data set” (2004):
# The source made the active and inactive calls.
# What was measured:
# [1] = biological target: Peroxisome proliferator-activated receptor gamma/Nuclear receptor coactivator 3 (Homo sapiens, UniProt P37231); assay type: functional;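 further: agonist potency for raising coactivator recruitment to the receptor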
# [2] = biological target: Peroxisome proliferator-activated receptor gamma/Nuclear receptor coactivator 2 (Homo sapiens, UniProt P37231); assay type: functional;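 further: agonist potency for raising coactivator recruitment to the receptor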
# [3] = biological target: Peroxisome proliferator-activated receptor gamma/Nuclear receptor coactivator 1 (Homo sapiens, UniProt P37231); assay type: functional;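 further: agonist potency as compounds enhance coactivator SRC-1 recruitment to PPARgamma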
# [4] = A549 cell cytotoxicity, dose response, cytotoxicity control, plate reader, cherry-pick, antagonist series (AID 743412); assay type: functional, cell-based
# [5] = biological target: T1, Nuclear receptor subfamily 0 group B member 1 (Homo sapiens, UniProt P51843); assay type: functional, cell-based;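 further: HEK293T cells transfected with SF-1 and DAX-1 plus StAR promoter luciferase reporter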
# T1 sequence (P51843 whole entry): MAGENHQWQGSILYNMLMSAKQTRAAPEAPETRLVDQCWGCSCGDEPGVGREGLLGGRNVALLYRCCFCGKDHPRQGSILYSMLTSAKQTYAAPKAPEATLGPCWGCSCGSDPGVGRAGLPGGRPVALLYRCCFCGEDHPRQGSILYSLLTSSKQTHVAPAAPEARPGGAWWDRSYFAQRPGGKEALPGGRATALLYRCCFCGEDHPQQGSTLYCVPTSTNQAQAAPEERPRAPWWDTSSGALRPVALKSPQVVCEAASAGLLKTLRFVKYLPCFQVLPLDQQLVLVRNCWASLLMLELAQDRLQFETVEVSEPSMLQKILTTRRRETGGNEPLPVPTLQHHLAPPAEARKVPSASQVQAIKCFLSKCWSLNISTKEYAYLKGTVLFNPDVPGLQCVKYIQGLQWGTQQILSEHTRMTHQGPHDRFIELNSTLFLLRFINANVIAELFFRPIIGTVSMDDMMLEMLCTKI
# [6] = toxicity toward HepG2 liver cells – cell-based, plate reader, cherry-pick, antagonist series, cytotoxicity control, dose response (AID 743416); assay type: functional
# [7] = blockade of melanocortin 4 receptor signaling – cell-based, plate reader, cherry pick, counter-screen for LGR2 antagonist project, dose response (AID 743444); assay type: functional;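 further: transfected HEK 293 cells stimulated with alpha-MSH peptide; potency of inhibitors of the alpha-MSH evoked signal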
# [8] = blockers of bursicon-stimulated LGR2 cAMP reporter – cell-based, HEK293, CRE-luciferase reporter, cherry pick, set 2, dose response (AID 743343); assay type: functional;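 further: transfected cells were stimulated with diluted bursicon conditioned medium after compound addition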
# cells [9] = assay type: functional, cell-based
# Albumin = Albumin (Bos taurus, UniProt P02769); test: Counterscreen for inhibitors of T-cell receptor (TCR)-CD3 interaction: Fluorescence-based biochemical high throughput dose response assay to identify inhibitors of T-cell receptor (TCR)-CD3 interaction using a TAMRA-labeled BSA probe.; assay type: functional
# Caspase-6 = biological target: T2, Caspase-6 (Homo sapiens, UniProt P55212); test: inhibition of CASP6 peptide cleavage – biochemical, VEID-R110 fluorescence, cherry-pick, dose response (AID 720632)
# T2 sequence (P55212 whole entry): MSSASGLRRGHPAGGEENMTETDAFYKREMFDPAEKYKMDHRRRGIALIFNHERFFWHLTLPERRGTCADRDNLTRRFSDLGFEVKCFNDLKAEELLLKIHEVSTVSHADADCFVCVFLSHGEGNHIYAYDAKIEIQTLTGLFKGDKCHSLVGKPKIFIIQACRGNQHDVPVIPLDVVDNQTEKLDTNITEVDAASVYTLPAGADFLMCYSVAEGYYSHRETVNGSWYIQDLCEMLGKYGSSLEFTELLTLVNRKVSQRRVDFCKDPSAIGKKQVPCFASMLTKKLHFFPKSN
# ORF 73 = biological target: T3, ORF 73 (Human herpesvirus 8, UniProt O40947); test: KSHV LANA DNA-binding disruption – biochemical, fluorescence polarization, cherry-picked samples, dose response (AID 504725); design: species or system Human gammaherpesvirus 8;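 further: fluorescence polarization of a labeled DNA duplex reporting LANA DNA binding; potency is for inhibitors that block LANA binding to the DNA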
# T3 sequence (O40947 whole entry): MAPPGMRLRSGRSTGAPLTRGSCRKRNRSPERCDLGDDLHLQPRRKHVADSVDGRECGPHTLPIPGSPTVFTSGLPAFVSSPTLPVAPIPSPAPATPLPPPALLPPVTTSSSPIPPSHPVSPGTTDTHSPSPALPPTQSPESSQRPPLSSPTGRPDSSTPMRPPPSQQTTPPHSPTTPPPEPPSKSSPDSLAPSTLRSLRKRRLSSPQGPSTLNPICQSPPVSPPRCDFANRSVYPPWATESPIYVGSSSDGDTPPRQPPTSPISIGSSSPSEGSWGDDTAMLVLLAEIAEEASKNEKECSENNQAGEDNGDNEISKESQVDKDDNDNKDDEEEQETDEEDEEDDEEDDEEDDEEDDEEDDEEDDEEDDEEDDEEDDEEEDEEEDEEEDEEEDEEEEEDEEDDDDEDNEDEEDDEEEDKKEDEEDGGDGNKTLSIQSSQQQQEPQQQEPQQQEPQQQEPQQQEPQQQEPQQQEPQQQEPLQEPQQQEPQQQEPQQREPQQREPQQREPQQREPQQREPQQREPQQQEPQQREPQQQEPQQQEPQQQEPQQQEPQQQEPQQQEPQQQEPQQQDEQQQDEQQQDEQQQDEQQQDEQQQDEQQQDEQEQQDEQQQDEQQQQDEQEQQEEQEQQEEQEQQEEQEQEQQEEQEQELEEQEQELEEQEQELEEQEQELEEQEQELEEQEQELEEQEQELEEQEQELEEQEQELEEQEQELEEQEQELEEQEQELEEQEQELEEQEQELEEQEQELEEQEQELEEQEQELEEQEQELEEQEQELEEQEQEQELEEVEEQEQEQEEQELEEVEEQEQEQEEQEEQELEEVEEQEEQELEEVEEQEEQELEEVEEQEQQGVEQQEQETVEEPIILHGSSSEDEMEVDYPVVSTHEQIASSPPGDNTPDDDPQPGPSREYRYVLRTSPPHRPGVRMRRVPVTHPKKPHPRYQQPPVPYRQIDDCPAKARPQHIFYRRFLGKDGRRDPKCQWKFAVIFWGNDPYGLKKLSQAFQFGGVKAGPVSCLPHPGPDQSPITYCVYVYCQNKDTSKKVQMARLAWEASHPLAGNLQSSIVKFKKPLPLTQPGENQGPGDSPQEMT
# [10] = biological target: T4, Oxysterols receptor LXR-beta (Homo sapiens, UniProt P55055); assay type: functional, cell-based;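 further: Cell-based luminescence dose-response assay of agonist activity at LXR, run as a confirmatory counterscreen to a daf-12 agonist screen; HEK293 cells with Gal4-LXR fusion and GAL4-driven luciferase reporter; agonist potency from rising luciferase signal of a Gal4-LXR reporter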
# T4 sequence (P55055 whole entry): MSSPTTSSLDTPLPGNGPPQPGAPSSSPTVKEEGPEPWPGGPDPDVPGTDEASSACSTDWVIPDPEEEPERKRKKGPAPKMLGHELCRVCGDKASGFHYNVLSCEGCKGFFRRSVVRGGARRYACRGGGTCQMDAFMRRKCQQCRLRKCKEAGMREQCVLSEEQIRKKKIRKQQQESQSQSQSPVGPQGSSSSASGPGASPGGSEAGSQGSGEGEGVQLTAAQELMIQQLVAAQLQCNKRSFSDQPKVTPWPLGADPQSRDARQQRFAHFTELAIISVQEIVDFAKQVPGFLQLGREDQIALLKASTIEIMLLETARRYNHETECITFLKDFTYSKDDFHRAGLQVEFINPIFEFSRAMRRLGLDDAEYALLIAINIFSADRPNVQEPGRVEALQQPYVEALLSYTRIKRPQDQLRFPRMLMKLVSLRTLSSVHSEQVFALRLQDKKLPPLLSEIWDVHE
# cells [11] = test: cells
# Protein skinhead-1 = biological target: T5, Protein skinhead-1 (Caenorhabditis elegans, UniProt P34707); assay type: functional
# T5 sequence (P34707 whole entry): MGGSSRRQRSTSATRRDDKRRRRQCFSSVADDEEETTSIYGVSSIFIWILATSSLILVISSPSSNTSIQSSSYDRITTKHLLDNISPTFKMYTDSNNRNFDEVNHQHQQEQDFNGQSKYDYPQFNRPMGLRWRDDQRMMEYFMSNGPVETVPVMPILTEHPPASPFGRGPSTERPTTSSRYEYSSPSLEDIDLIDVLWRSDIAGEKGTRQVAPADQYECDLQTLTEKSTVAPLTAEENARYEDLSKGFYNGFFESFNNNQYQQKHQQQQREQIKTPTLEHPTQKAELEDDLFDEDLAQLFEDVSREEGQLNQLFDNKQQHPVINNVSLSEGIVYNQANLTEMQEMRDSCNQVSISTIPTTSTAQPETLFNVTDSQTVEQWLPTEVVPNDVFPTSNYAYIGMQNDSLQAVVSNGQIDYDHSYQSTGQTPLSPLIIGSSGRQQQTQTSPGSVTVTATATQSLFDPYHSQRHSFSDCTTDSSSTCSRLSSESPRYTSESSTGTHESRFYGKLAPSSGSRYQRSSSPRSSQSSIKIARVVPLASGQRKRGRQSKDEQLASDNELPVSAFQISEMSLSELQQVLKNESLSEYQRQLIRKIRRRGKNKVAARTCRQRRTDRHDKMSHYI
# [12] = biological target: T6, RNA-binding protein pos-1 (Caenorhabditis elegans, UniProt G5EF15); test: disruptors of C. elegans POS-1 RNA interaction – biochemical, fluorescence polarization, dose response (AID 1964);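 further: purified POS-1 fused to maltose binding protein made in E. coli; potency of compounds blocking POS-1 binding to fluorescent RNA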
# T6 sequence (G5EF15 whole entry): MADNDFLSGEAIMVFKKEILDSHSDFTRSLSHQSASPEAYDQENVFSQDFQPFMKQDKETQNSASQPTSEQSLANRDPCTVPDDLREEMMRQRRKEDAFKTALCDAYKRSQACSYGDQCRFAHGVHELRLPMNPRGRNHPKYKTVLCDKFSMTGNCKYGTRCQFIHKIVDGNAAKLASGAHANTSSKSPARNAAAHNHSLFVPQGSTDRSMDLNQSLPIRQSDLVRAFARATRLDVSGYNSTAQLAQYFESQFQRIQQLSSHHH
# [13] = biological target: T7, Zinc finger protein mex-5 (Caenorhabditis elegans, UniProt Q9XUB2); test: potency of MEX-5 RNA-binding blockers – biochemical, C. elegans, fluorescence polarization, dose response (AID 1960)
# T7 sequence (Q9XUB2 whole entry): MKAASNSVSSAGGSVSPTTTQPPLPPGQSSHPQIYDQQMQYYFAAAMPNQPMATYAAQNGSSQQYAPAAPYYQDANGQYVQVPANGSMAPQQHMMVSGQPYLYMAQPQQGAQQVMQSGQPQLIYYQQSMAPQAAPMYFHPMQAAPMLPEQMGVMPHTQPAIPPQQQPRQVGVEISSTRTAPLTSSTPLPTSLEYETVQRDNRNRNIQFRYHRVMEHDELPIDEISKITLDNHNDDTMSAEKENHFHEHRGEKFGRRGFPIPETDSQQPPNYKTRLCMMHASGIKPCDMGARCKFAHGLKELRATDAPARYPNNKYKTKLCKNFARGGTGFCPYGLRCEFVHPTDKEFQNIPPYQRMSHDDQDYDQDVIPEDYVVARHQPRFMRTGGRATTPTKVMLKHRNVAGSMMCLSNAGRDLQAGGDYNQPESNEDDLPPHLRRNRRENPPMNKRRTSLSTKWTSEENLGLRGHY
# [14] = biological target: DNA dC->dU-editing enzyme APOBEC-3G (Homo sapiens, UniProt Q9HC16); test: Dose Response confirmation of small molecule APOBEC3G DNA Deaminase Inhibitors via a fluorescence-based single-stranded DNA deaminase assay. [Related pubchem assays (depositor defined):AID493012, AID493028]; assay type: functional
# [15] = Luminescence Cell-Based Dose Confirmation HTS to Identify Inhibitors of Platelet Dense Granule Release. [Related pubchem assays: 1663 (Primary HTS), 1678 (Summary of Project)]; assay type: functional
# [16] = biological target: Luciferin 4-monooxygenase (Photinus pyralis, UniProt P08659); test: inhibition of purified Photinus pyralis luciferase – biochemical, luminescence, dose response (AID 1891)
# Cytochrome P450 3A4 = Cytochrome P450 3A4 (Homo sapiens, UniProt P08684); details: Potency;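 further: confirmatory qHTS run detecting inhibitors and substrates of CYP3A4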
# Sequence of Peroxisome proliferator-activated receptor gamma/Nuclear receptor coactivator 2 (P37231 whole entry): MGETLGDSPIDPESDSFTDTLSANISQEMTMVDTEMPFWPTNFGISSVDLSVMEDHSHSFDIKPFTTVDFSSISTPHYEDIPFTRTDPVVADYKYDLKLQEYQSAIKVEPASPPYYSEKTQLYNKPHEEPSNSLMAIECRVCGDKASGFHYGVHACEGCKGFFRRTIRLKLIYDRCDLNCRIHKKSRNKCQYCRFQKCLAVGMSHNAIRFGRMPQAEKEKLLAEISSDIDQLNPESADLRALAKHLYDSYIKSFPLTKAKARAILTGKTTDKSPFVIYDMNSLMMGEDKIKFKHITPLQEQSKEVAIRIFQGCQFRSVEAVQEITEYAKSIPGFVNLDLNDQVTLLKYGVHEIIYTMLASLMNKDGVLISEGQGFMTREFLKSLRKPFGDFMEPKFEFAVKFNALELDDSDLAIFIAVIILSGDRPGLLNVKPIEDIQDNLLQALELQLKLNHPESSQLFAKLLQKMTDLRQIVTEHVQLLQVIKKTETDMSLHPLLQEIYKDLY
# Sequence of Peroxisome proliferator-activated receptor gamma/Nuclear receptor coactivator 2 (Q15596 whole entry, further chain): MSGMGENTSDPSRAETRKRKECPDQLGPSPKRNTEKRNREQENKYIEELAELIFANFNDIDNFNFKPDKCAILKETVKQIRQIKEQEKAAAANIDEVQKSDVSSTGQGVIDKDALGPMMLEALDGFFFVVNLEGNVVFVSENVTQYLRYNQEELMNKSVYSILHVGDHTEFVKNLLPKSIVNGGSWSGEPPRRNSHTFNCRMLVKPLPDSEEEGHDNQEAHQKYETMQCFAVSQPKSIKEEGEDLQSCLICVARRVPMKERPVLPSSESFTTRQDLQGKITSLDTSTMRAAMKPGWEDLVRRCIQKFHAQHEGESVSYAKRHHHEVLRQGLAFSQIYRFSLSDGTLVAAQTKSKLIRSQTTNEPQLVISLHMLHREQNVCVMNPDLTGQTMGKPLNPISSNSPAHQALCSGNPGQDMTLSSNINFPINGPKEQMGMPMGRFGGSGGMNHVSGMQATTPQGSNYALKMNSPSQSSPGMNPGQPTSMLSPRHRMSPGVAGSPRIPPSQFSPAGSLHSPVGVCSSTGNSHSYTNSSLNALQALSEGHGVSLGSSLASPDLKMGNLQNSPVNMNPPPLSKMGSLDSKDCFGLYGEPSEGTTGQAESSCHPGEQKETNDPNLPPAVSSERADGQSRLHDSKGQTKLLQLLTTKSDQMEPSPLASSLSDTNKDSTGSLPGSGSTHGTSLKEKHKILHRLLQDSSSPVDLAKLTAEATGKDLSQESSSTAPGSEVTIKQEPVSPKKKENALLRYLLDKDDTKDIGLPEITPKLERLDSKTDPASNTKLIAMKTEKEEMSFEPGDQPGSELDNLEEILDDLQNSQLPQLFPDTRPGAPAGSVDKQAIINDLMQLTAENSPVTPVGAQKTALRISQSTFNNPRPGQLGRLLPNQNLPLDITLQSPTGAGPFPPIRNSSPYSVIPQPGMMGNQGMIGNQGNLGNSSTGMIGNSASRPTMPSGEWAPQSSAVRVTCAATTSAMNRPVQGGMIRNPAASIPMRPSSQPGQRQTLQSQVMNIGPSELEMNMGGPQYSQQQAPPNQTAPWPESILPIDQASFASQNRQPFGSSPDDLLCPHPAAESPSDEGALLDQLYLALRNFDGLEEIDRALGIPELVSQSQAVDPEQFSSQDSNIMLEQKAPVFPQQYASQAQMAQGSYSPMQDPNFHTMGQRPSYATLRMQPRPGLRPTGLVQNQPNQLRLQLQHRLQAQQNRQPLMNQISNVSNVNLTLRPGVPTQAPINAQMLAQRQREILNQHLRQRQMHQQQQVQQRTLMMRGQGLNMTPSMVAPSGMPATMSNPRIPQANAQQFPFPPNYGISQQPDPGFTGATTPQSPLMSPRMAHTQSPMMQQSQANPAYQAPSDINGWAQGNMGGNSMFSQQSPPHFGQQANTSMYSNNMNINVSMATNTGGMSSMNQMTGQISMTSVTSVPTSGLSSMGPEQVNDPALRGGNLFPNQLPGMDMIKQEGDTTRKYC
# Sequence of Peroxisome proliferator-activated receptor gamma/Nuclear receptor coactivator 3 (P37231 whole entry): as the sequence (P37231 whole entry) above
# Sequence of Peroxisome proliferator-activated receptor gamma/Nuclear receptor coactivator 3 (Q9Y6Q9 whole entry, further chain): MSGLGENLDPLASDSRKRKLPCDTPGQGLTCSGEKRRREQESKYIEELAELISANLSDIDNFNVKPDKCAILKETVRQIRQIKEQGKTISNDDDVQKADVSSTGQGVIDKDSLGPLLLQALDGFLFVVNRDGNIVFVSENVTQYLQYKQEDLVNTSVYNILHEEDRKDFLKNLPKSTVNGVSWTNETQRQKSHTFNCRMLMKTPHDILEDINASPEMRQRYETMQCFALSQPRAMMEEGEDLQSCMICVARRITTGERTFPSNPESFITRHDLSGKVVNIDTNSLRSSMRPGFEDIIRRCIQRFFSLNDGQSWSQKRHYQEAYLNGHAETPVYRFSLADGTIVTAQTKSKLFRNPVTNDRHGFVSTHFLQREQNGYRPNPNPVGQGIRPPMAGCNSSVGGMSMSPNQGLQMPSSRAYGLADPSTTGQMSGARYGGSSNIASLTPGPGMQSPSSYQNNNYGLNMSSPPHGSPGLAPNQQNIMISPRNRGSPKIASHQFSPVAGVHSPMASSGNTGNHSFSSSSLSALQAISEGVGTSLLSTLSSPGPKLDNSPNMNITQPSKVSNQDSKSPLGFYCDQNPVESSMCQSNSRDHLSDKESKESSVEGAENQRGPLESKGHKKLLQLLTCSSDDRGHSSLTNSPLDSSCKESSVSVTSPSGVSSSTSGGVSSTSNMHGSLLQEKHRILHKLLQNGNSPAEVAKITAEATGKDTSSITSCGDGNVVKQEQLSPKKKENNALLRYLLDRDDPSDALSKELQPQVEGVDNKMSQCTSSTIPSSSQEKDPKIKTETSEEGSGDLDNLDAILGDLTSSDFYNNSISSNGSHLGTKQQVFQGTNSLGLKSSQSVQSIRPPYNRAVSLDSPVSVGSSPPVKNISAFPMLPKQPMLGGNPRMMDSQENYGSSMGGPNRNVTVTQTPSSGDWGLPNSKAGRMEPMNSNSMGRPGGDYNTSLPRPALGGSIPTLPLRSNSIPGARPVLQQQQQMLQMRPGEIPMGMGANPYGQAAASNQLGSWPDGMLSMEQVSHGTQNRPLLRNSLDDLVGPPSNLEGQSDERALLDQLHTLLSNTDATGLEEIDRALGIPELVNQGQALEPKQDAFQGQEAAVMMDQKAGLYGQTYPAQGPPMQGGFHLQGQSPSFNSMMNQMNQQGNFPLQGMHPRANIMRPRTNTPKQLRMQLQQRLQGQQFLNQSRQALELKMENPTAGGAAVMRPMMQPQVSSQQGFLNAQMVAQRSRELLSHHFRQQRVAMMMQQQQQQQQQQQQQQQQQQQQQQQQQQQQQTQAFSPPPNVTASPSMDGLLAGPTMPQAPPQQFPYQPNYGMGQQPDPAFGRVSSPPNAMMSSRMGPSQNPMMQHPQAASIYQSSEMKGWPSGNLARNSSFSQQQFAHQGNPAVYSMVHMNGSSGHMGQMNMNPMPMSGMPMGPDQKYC
# Sequence of Albumin (P02769 whole entry): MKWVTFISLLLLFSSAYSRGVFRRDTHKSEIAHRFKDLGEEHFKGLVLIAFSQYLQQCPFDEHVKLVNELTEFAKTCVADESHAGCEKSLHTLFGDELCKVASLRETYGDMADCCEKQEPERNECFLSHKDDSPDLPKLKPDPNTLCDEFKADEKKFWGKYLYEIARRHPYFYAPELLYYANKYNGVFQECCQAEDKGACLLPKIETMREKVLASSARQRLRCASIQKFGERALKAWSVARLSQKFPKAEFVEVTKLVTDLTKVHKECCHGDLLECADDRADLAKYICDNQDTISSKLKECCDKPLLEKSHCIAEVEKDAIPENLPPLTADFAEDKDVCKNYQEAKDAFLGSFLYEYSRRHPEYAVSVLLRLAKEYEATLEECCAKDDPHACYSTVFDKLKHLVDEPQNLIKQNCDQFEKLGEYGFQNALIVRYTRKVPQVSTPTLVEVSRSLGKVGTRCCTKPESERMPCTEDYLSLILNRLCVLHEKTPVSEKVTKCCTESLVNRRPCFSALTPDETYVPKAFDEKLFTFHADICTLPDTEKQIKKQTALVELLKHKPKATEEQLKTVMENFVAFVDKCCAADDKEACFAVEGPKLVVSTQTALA
# Sequence of DNA dC->dU-editing enzyme APOBEC-3G (Q9HC16 whole entry): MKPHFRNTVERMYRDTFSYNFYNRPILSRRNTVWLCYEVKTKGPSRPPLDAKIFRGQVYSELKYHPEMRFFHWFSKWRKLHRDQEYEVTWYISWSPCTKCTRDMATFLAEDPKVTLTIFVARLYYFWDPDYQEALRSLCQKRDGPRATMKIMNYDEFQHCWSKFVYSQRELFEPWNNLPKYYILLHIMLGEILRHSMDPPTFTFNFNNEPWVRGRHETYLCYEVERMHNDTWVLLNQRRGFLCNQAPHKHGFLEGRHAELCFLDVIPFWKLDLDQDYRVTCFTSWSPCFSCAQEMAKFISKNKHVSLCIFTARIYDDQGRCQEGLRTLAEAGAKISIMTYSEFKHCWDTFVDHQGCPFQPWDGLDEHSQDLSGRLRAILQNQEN
structure (smiles),measurement,setting,value
CCOc1ccc(NC2=NN=C(c3cc(C)n(CC4CCCO4)c3C)CS2)cc1 (configuration not stated),EC50,[1],> 79.4 µM (not active)
same,EC50,[2],> 79.4 µM (not active)
same,EC50,[3],> 79.4 µM (not active)
CC(C)c1nnc(NC(=O)c2ccc3c(c2)OCO3)s1,AC50,[4],> 52 µM (inactive)
same,IC50,[5],> 0.278 µM (active)
same,AC50,[6],> 52 µM (inactive)
same,AC50,[7],5.43 µM (active)
same,AC50,[8],4.95 µM (active)
same,IC50,cells [9],> 67.6 µM (inactive)
O=C(NNC(=O)c1ccccc1F)c1cccc(-n2cccc2)c1,IC50,Albumin,> 94 µM (inactive)
same,AC50,Caspase-6,1.2 µM (active)
COCCn1c(C)cc(C(=O)CN2C(=O)NC3(CCCCCC3)C2=O)c1C,IC50,[5],> 67.5 µM (inactive)
same,IC50,cells [9],> 67.5 µM (inactive)
CCn1c(SCc2nc(O)c3c(C)c(C(=O)O)sc3n2)nc2ccccc21,AC50,ORF 73,32.2 µM (active)
Cc1ccc(OCC(=O)NNC(=O)C(=O)NC(C)(C)C)cc1,EC50,[1],> 79.4 µM (not active)
same,EC50,[2],> 79.4 µM (not active)
same,EC50,[3],> 79.4 µM (not active)
Cc1ccc2[nH]c(CSc3nc(C)cc(C)c3C#N)nc2c1,EC50,[10],> 67.5 µM (inactive)
same,EC50,cells [11],> 67.5 µM (inactive)
CC(=O)NNC(=S)NC(=O)c1ccc(C)cc1,IC50,Albumin,> 94 µM (inactive)
O=C(c1cccs1)c1ccc(-c2cccs2)s1,IC50,Protein skinhead-1,26.5 µM (active)
same,EC50,[12],215 µM (active)
same,EC50,[10],> 67.5 µM (inactive)
same,EC50,cells [11],> 67.5 µM (inactive)
same,EC50,[13],> 300 µM (not active)
COc1ccc(Cn2c(-c3ccc(C)cc3)nc3c(c(=O)c4ccccc4n3C)c2=O)cc1,EC50,[1],> 79.4 µM (not active)
same,EC50,[2],> 79.4 µM (not active)
same,EC50,[3],> 79.4 µM (not active)
CCN(CC)c1ccc(NC(=O)c2ccccn2)cc1S(=O)(=O)Nc1ccccc1OC,IC50,[14],69.2 µM (active)
O=C(/C=C/Nc1ccc(F)cc1F)c1ccco1,EC50,[15],4.36 µM (active)
same,IC50,[5],> 67.5 µM (inactive)
same,EC50,[16],0.812 µM (active)
same,IC50,Protein skinhead-1,17 µM (active)
same,IC50,cells [9],> 67.5 µM (inactive)
"COc1ccc(-c2cc(=O)c3cc(OC)ccc3o2)cc1 [6,4'-DIMETHOXYFLAVONE]",AC50,Cytochrome P450 3A4,3.16 µM (inconclusive)
same,IC50,[5],> 67.5 µM (inactive)
same,IC50,cells [9],> 67.5 µM (inactive)
